Laboratory results published in patent publication US20260374766A1, “METHODS FOR TREATING CANCER” (Antares Therapeutics, Inc., priority 2022, published 2026).

Legend:
[1] = test system: H1299 p53 Y220C; assay: Cell Proliferation Assay (CellTiter-Glo, CTG), H1299 p53 Y220C (NClH1299-inducible p53 Y220C); type: cell-based; conditions: Homo sapiens, NCI-H1299, 120 h, NClH1299-inducible p53 Y220C cells, 5 days, CellTiter-Glo
Summary of the method: (§1)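 Cells seeded at 250-500 per well and exposed to compound for 5 days. Viability read by CellTiter-Glo luminescence after 10 min at room temperature; IC50 calculated. H1299 lines carry Tet-One inducible p53 mutant constructs introduced by lentiviral transduction.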

[2] = test system: H1299 p53 R273H; assay: Cell Proliferation Assay (CellTiter-Glo, CTG), H1299 p53 R273H (NClH1299-inducible p53 R273H); type: cell-based; conditions: Homo sapiens, NCI-H1299, 120 h, NClH1299-inducible p53 R273H cells, 5 days, CellTiter-Glo
Summary of the method: as §1

[3] = target: T1, p53 Y220C mutant protein (amino acid residues 94-293) (Homo sapiens, UniProt P04637, Y220C); assay: Surface Plasmon Resonance (SPR) assay, Kd_kinetic; type: binding; conditions: SPR; p53 Y220C; read-out: SPR P53 Y220C KD kinetic
T1 construct: p53 Y220C mutant protein (amino acid residues 94-293)
Summary of the method: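 Surface plasmon resonance is run at 16 or 20 °C in 50 mM Tris pH 7.5 containing 100 mM NaCl, 1 mM DTT, 0.01% Brij35, 0.05% Tween-20 and 1% DMSO. Association and dissociation data are fitted to a 1:1 model.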

[4] = test system: NUGC3 p53 Y220C; assay: Cell Proliferation Assay (CellTiter-Glo, CTG), NUGC3 p53 Y220C; type: cell-based; conditions: Homo sapiens, NUGC-3, 120 h, NUGC3 cells, 5 days, CellTiter-Glo
Summary of the method: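 Tet-One inducible p53 Y220C or R273H constructs were stably introduced into NCI-H1299 by lentiviral transduction; NUGC3 was used as is. Cells (250-500 per well) were exposed to compound for 5 days, then CellTiter-Glo was added for 10 min at room temperature and IC50 was calculated from luminescence.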

[5] = target: T1, p53 Y220C mutant protein (amino acid residues 94-293); assay: Thermal Shift Assay (TSA), dTM; type: binding; conditions: p53 Y220C, read-out: TSA P53 Y220C dTM; for ΔTm at 10 µM: 10 uM compound; for ΔTm at 100 µM: 100 uM compound
Summary of the method: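 5 μM protein + 10 μM or 100 μM cpd, 3 h, 20 °C; 20 mM HEPES pH7.4, 100 mM NaCl, 0.01% Pluronic F-127, 1% DMSO, Sypro Orange 400-fold dil. Ramp 30→50 °C, 0.03 °C/s. TM by Boltzmann two-state fit.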

[6] = target: p53 Y220C (Homo sapiens, UniProt P04637, Y220C); assay: Luciferase Reporter Assay (Luc), p53 response element, NClH1299 cells with inducible p53 Y220C; type: cell-based; conditions: luciferase reporter, NClH1299 inducible p53 Y220C, 6 hour; for AC50: read-out: Luc P53 Y220C AC50
Summary of the method: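 Steps: seed 5,000 cells/well; induce mutant p53 with 0.5 ug/mL doxycycline for 24 h; treat with compound 6 h; add equal volume One-Glo, shake 5 min at room temperature; measure luciferase immediately.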

SMILES	IC50 [1] [µM]	IC50 [2] [µM]	Kd [3] [µM]	IC50 [4] [µM]	ΔTm at 10 µM [5] [°C]	ΔTm at 100 µM [5] [°C]	AC50 [6] [µM]	Emax [6] [%]
CNC(=O)c1cnc(OC)c(NCC#Cc2nc3c(N[C@@H]4CCN(C)C[C@@H]4F)cccn3c2CC(F)(F)F)c1 [Example 261]	0.75 to 1.5	≥ 10	< 0.01	< 0.75	5 to 10	≥ 10	1.5 to 3	70 to 80
CNC(=O)c1cnc(OC)c(NCC#Cc2nc3c(N[C@@H]4C[C@H]5CC[C@H](N5)[C@@H]4F)cccn3c2SC(F)(F)F)c1 [Example 264]	< 0.75	8 to 10	< 0.01	< 0.75	≥ 10	≥ 10	< 0.75	70 to 80
CNC(=O)c1cnc(OC)c(NCC#Cc2nn3c(N[C@@H]4CCN(C)C[C@@H]4F)cccc3c2SC(F)F)c1 [Example 268]	< 0.75	< 5	< 0.01	< 0.75	≥ 10	≥ 10	< 0.75	> 90
CNC(=O)c1ccc(OC)c(NCC#Cc2nn3c(N[C@@H]4C[C@H]5CC[C@H](N5)[C@@H]4F)cccc3c2SC(F)(F)F)c1 [Example 269]	< 0.75	< 5	< 0.01	< 0.75	≥ 10	5 to 10	< 0.75	70 to 80
CNC(=O)c1cnc(OC)c(NCC#Cc2nn3c(N[C@@H]4CCNC[C@@H]4F)cccc3c2SC(F)(F)F)c1 [Example 270]	< 0.75	< 5	< 0.01	< 0.75	≥ 10	–	< 0.75	80 to 90
CNC(=O)c1cc(NCC#Cc2nc3c(N[C@@H]4CCN(C)C[C@@H]4F)cccn3c2SC(F)(F)F)c2nccn2c1 [Example 277]	< 0.75	≥ 10	< 0.01	< 0.75	≥ 10	–	< 0.75	> 90
CNC(=O)c1ccc(NCC#Cc2nc3c(N[C@@H]4C[C@@H]5COC[C@H]([C@@H]4F)N5C)cccn3c2SC(F)(F)F)c(OC)c1 [Example 283]	< 0.75	≥ 10	< 0.01	< 0.75	≥ 10	–	< 0.75	80 to 90
CNC(=O)c1ccc(OC)c(NCC#Cc2nn3c(N[C@@H]4C[C@H]5CC[C@@H]([C@@H]4F)N5C)cccc3c2SC(F)(F)F)c1 [Example 284]	< 0.75	< 5	< 0.01	< 0.75	≥ 10	≥ 10	< 0.75	80 to 90
CCNC(=O)c1ccc(OC)c(NCC#Cc2nn3c(N[C@@H]4CCN(C)C[C@@H]4F)cccc3c2SC(F)(F)F)c1 [Example 285]	< 0.75	5 to 8	< 0.01	< 0.75	≥ 10	≥ 10	< 0.75	80 to 90
CNC(=O)c1ccc(OC)c(NCC#Cc2nn3c(N[C@H]4C[C@@H]5CC[C@@H](N5)[C@H]4F)cccc3c2SC(F)(F)F)c1 [Example 287]	< 0.75	< 5	< 0.01	< 0.75	≥ 10	–	< 0.75	80 to 90
CNC(=O)c1ccc(OC)c(NCC#Cc2nn3c(N[C@H]4C[C@@H]5CC[C@H]([C@H]4F)N5C)cccc3c2SC(F)(F)F)c1 [Example 288]	< 0.75	< 5	< 0.01	< 0.75	≥ 10	–	< 0.75	80 to 90
CNC(=O)c1ccc(OC)c(NCC#Cc2cc3c(N[C@@H]4CCNC[C@@H]4F)nccn3c2SC(F)(F)F)c1 [Example 289]	< 0.75	5 to 8	< 0.01	< 0.75	≥ 10	≥ 10	< 0.75	> 90
CCNC(=O)c1ccc(OC)c(NCC#Cc2cc3c(N[C@@H]4CCN(C)C[C@@H]4F)nccn3c2SC(F)(F)F)c1 [Example 290]	< 0.75	≥ 10	< 0.01	< 0.75	≥ 10	–	< 0.75	> 90
CCNC(=O)c1cnc(OC)c(NCC#Cc2cc3c(N[C@@H]4CCN(C)C[C@@H]4F)nccn3c2SC(F)(F)F)c1 [Example 291]	< 0.75	≥ 10	< 0.01	< 0.75	≥ 10	≥ 10	< 0.75	> 90
CNC(=O)c1cnc(OC)c(NCC#Cc2cc3c(N[C@@H]4CCNC[C@@H]4F)nccn3c2SC(F)(F)F)c1 [Example 292]	< 0.75	≥ 10	< 0.01	< 0.75	≥ 10	–	< 0.75	> 90
CCNC(=O)c1cnc(OC)c(NCC#Cc2nc3c(N[C@@H]4CCN(C)C[C@@H]4F)cccn3c2SC(F)(F)F)c1 [Example 293]	< 0.75	≥ 10	< 0.01	< 0.75	≥ 10	–	< 0.75	80 to 90
CNC(=O)c1ccc(C)c(NCC#Cc2cc3c(N[C@@H]4CCN(C)C[C@@H]4F)nccn3c2SC(F)(F)F)c1 [Example 294]	< 0.75	≥ 10	< 0.01	< 0.75	≥ 10	–	< 0.75	> 90
CNC(=O)c1ccc(NCC#Cc2cc3c(N[C@@H]4CCNC[C@@H]4F)nccn3c2SC(F)(F)F)c(OC)c1 [Example 295]	< 0.75	8 to 10	< 0.01	< 0.75	≥ 10	–	< 0.75	> 90
CNC(=O)c1ccc(OC)c(NCC#Cc2nc3c(N[C@@H]4CCN(CCOC)C[C@@H]4F)cccn3c2SC(F)(F)F)c1 [Example 296]	< 0.75	≥ 10	< 0.01	< 0.75	≥ 10	–	< 0.75	80 to 90
